Activity calls are given as the source filed them. The calls are words filed in the database; no cut-off is given here.
Columns and labels:
HeLa [1] = test: Upregulation of OPTN mRNA expression in TFEB knockout human HeLa cells at 10 uM incubated for 24 hrs by qRT-PCR analysis; assay type: functional, cell-based
HeLa [2] = test: Upregulation of CTSD mRNA expression in TFEB knockout human HeLa cells at 10 uM incubated for 24 hrs by qRT-PCR analysis; assay type: functional, cell-based
[3] = AUC (0 to t) in ICR mouse at 20 mg/kg, po measured upto 24 hrs by LC-MS/MS analysis; assay type: ADME, organism-based; conditions: in vivo
HeLa [4] = test: Upregulation of Atg16L1 mRNA expression in TFEB knockout human HeLa cells at 10 uM incubated for 24 hrs by qRT-PCR analysis; assay type: functional, cell-based
[5] = Half life in ICR mouse at 10 mg/kg, ip measured upto 24 hrs by LC-MS/MS analysis; assay type: ADME, organism-based; conditions: in vivo
HeLa [6] = test: Upregulation of HEXA mRNA expression in TFEB knockout human HeLa cells at 10 uM incubated for 24 hrs by qRT-PCR analysis; assay type: functional, cell-based
Mus musculus [7] = test: Anti-alzheimer activity against APP/PS1 mouse model assessed as reduction in amyloid beta plaque in cortex at 10 mg/kg, ip administered for 30 days; assay type: functional; parameters: scale not given: the % may be the effect or the level left; conditions: time 30 day
[8] = Induction of TFEB nuclear translocation in human HeLa cells expressing EGFP at 30 uM measured at 3 hrs by fluorescence microscopic analysis; assay type: functional
[9] = Oral bioavailability in ICR mouse at 20 mg/kg measured upto 24 hrs by LC-MS/MS analysis; assay type: ADME, organism-based; conditions: in vivo
HeLa [10] = test: Induction of cell cycle arrest in human HeLa cells assessed as effect on CDK7 level at 10 uM incubated for 12 hrs by qRT-PCR analysis; assay type: functional, cell-based
HeLa [11] = test: Upregulation of LAMP1 mRNA expression in TFEB knockout human HeLa cells at 10 uM incubated for 24 hrs by qRT-PCR analysis; assay type: functional, cell-based
HeLa [12] = test: Upregulation of p62 mRNA expression in human HeLa cells at 10 uM incubated for 24 hrs by qRT-PCR analysis; assay type: functional, cell-based
[13] = Ratio of drug concentration in ICR mouse brain to plasma at 10 mg/kg, ip measured upto 24 hrs by LC-MS/MS analysis; assay type: ADME, organism-based; conditions: brain and plasma, read-out: BPR
Mus musculus [14] = test: Anti-alzheimer activity against APP/PS1 mouse model assessed as upregulation of ATG16L1 mRNA expression in brain at 10 mg/kg, ip administered for 30 days; assay type: functional, organism-based; conditions: time 30.0 day
[15] = Induction of TFEB nuclear translocation in human HeLa cells expressing EGFP at 10 uM measured at 3 hrs by fluorescence microscopic analysis; assay type: functional
[16] = Induction of TFEB nuclear translocation in human HeLa cells expressing EGFP at 30 uM measured at 6 hrs by fluorescence microscopic analysis; assay type: functional
Mus musculus [17] = test: Anti-alzheimer activity against APP/PS1 mouse model assessed as increase in time spent in the target quadrant at 10 mg/kg, ip administered for 30 days by Morris water maze test; assay type: functional, organism-based; conditions: time 30.0 day
[18] = Ratio of drug concentration in ICR mouse brain to plasma at 5 mg/kg, iv measured upto 24 hrs by LC-MS/MS analysis; assay type: ADME, organism-based; conditions: brain and plasma, read-out: BPR
HeLa [19] = test: Induction of cell cycle arrest in human HeLa cells assessed as effect on LAMP1 level at 10 uM incubated for 12 hrs by qRT-PCR analysis; assay type: functional, cell-based
[20] = Tmax in ICR mouse at 20 mg/kg, po measured upto 24 hrs by LC-MS/MS analysis; assay type: ADME, organism-based; conditions: in vivo
HeLa [21] = test: Upregulation of p62 mRNA expression in TFEB knockout human HeLa cells at 10 uM incubated for 24 hrs by qRT-PCR analysis; assay type: functional, cell-based
[22] = Cmax in ICR mouse at 20 mg/kg, po measured upto 24 hrs by LC-MS/MS analysis; assay type: ADME, organism-based; conditions: in vivo
HeLa [23] = test: Induction of cell cycle arrest in human HeLa cells assessed as effect on CDK4 level at 10 uM incubated for 12 hrs by qRT-PCR analysis; assay type: functional, cell-based
HeLa [24] = test: Upregulation of OPTN mRNA expression in human HeLa cells at 10 uM incubated for 24 hrs by qRT-PCR analysis; assay type: functional, cell-based
HeLa [25] = test: Upregulation of […] mRNA expression in TFEB knockout human HeLa cells at 10 uM incubated for 24 hrs by qRT-PCR analysis; assay type: functional, cell-based
[26] = Acute toxicity in C57BL/6J mouse assessed as brain damage at 50 mg/kg, ip measured upto 14 days by H and E staining based analysis; assay type: organism-based; conditions: in vivo, 336 h, time < 14 day
[27] = Volume of distribution at steady state in ICR mouse measured upto 24 hrs by LC-MS/MS analysis; assay type: ADME; conditions: in vivo, read-out: Vdss
[28] = Clearance in ICR mouse at 5 mg/kg, iv measured upto 24 hrs by LC-MS/MS analysis; assay type: ADME, organism-based; conditions: in vivo
HeLa [29] = test: Upregulation of UVRAG mRNA expression in human HeLa cells at 10 uM incubated for 24 hrs by qRT-PCR analysis; assay type: functional, cell-based
HeLa [30] = test: Upregulation of LAMP1 mRNA expression in human HeLa cells at 10 uM incubated for 24 hrs by qRT-PCR analysis; assay type: functional, cell-based
HeLa [31] = test: Upregulation of LC3B mRNA expression in TFEB knockout human HeLa cells at 10 uM incubated for 24 hrs by qRT-PCR analysis; assay type: functional, cell-based
Mus musculus [32] = test: Anti-alzheimer activity against APP/PS1 mouse model assessed as upregulation of p62 mRNA expression in brain at 10 mg/kg, ip administered for 30 days; assay type: functional, organism-based; conditions: time 30.0 day
[33] = Acute toxicity in C57BL/6J mouse assessed as heart damage at 50 mg/kg, ip measured upto 14 days H and E staining based analysis; assay type: organism-based; conditions: in vivo, 336 h, time < 14 day
HeLa [34] = test: Upregulation of GLA mRNA expression in human HeLa cells at 10 uM incubated for 24 hrs by qRT-PCR analysis; assay type: functional, cell-based
Mus musculus [35] = test: Anti-alzheimer activity against APP/PS1 mouse model assessed as reduction in amyloid beta 42 plaque in cortex at 10 mg/kg, ip administered for 30 days; assay type: functional; parameters: scale not given: the % may be the effect or the level left; conditions: time 30 day
HeLa [36] = test: Upregulation of Atg16L1 mRNA expression in human HeLa cells at 10 uM incubated for 24 hrs by qRT-PCR analysis; assay type: functional, cell-based
HeLa [37] = test: Upregulation of GLA mRNA expression in TFEB knockout human HeLa cells at 10 uM incubated for 24 hrs by qRT-PCR analysis; assay type: functional, cell-based
[38] = Acute toxicity in C57BL/6J mouse assessed as kidney damage at 50 mg/kg, ip measured upto 14 days H and E staining based analysis; assay type: organism-based; conditions: in vivo, 336 h, time < 14 day
SH-SY5Y = test: Cytotoxicity against human SH-SY5Y cells assessed as effect on cell viability at 10 uM incubated for 24 hrs; assay type: functional, cell-based
HeLa [39] = test: Upregulation of CTSD mRNA expression in human HeLa cells at 10 uM incubated for 24 hrs by qRT-PCR analysis; assay type: functional, cell-based
[40] = Bioavailability in ICR mouse at 5 mg/kg, ip measured upto 24 hrs by LC-MS/MS analysis; assay type: ADME, organism-based; conditions: in vivo

## c1ccc2c(CCC3NCCc4cc5c(cc43)OCO5)c[nH]c2c1 (configuration not stated)
HeLa [1]
  Activity: Active
HeLa [2]
  Activity: Active
[3]; ICR
  AUC(0-t) at 24 h: 17100 ng·h/mL
HeLa [4]
  Activity: Active
[5]
  half-life: 123 min
HeLa [6]
  Activity: Active
Mus musculus [7]
  Activity: 26.5%
[8]
  Activity: 97%
[9]; ICR
  bioavailability: 76.4%
HeLa [10]
  Activity: inactive
HeLa [11]
  Activity: Active
HeLa [12]
  Activity: Active
[13]
  Kp at 24 h: 1.1
Mus musculus [14]
  Activity: Active
[15]
  Activity: 44%
[16]
  Activity: 98%
Mus musculus [17]
  Activity: Active
[18]
  Kp at 24 h: 2.8
HeLa [19]
  Activity: inactive
[20]
  Tmax: 34.8 min
HeLa [21]
  Activity: Active
[22]
  Cmax: 4030 ng/mL
HeLa [23]
  Activity: inactive
HeLa [24]
  Activity: Active
HeLa [25]
  Activity: Active
[26]
  Activity: Non-Toxic
[27]
  Vd: 4.51 L/kg
[28]
  clearance: 30.3 mL/min/kg
HeLa [29]
  Activity: Active
HeLa [30]
  Activity: Active
HeLa [31]
  Activity: Active
Mus musculus [32]
  Activity: Active
[33]
  Activity: Non-Toxic
HeLa [34]
  Activity: Active
Mus musculus [35]
  Activity: 47%
HeLa [36]
  Activity: Active
HeLa [37]
  Activity: Active
[38]
  Activity: Non-Toxic
SH-SY5Y
  Activity: Active
HeLa [39]
  Activity: Active
[40]
  bioavailability: 115%

## Fc1ccc2[nH]cc(CCC3c4cc5c(cc4CCN3CC3CCOCC3)OCO5)c2c1 (configuration not stated)
HeLa [1]
  Activity: Active
HeLa [2]
  Activity: Active
[3]; po, 20 mg/kg, 24 h
  AUCt: 17.4 ng·h/mL
HeLa [4]
  Activity: Active
[5]
  half-life: 70.2 min
HeLa [6]
  Activity: Active
Mus musculus [7]
  Activity: 29.5%
[8]
  Activity: 94%
[9]; po, 20 mg/kg, 24 h
  F: 6.73%
HeLa [10]
  Activity: inactive
HeLa [11]
  Activity: Active
HeLa [12]
  Activity: Active
[13]
  Kp at 24 h: 5.2
Mus musculus [14]
  Activity: Active
[15]
  Activity: 72%
[16]
  Activity: 98%
Mus musculus [17]
  Activity: Active
[18]
  Kp at 24 h: 6.9
HeLa [19]
  Activity: inactive
[20]
  Tmax: 25.2 min
HeLa [21]
  Activity: Active
[22]
  Cmax: 9.49 ng/mL
HeLa [23]
  Activity: inactive
HeLa [24]
  Activity: Active
HeLa [25]
  Activity: Active
[26]
  Activity: Non-Toxic
[27]
  Vd: 36.8 L/kg
[28]
  clearance: 204 mL/min/kg
HeLa [29]
  Activity: Active
HeLa [30]
  Activity: Active
HeLa [31]
  Activity: Active
Mus musculus [32]
  Activity: Active
[33]
  Activity: Non-Toxic
HeLa [34]
  Activity: Active
Mus musculus [35]
  Activity: 36.3%
HeLa [36]
  Activity: Active
HeLa [37]
  Activity: Active
[38]
  Activity: Non-Toxic
SH-SY5Y
  Activity: Active
HeLa [39]
  Activity: Active
[40]
  bioavailability: 25.7%

Source: ChEMBL document CHEMBL5506074, “Discovery and Optimization of Tetrahydroisoquinoline Derivatives To Enhance Lysosome Biogenesis as Preclinical Candidates for the Treatment of Alzheimer's Disease” (J Med Chem, 2024)
